Source: patent US20030228627A1, “Assay for p53 function in cells” (priority 2002, published 2003)

What was measured:
p21 promoter [1] = assay: DNase I footprinting of chromatin and DNA (p21-LUC plasmid); assay type: binding, human; settings: DNase I footprinting on p21 promoter DNA or chromatin
Protocol: To analyze the mechanism by which p300 mediates p53-dependent activation, DNase I chromatin footprinting assays were performed to examine the occupancy of the 5′ and 3′ sites of the p21 promoter under conditions of transcriptional coactivation. Chromatin assembly and factor incubation steps were performed as described above, but the samples were split into three aliquots just before the in vitro transcription reaction. One aliquot was subjected to DNase I digestion, the second was transcribed, and the third was analyzed by Western blot to determine the acetylation status of p53.
DNA footprinting experiments were performed with chromatin-assembled p21 promoters after ATP depletion and purification by gel filtration using nonsaturating amounts of p53.
DNase I footprinting was done using three different templates: crude chromatin-assembled mixtures, CL4B-purified chromatin, and naked DNA. […] After incubation of the different templates with the proteins, samples were digested with 33 U/ml (crude chromatin), 1.5 U/ml (purified chromatin) or 0.1 U/ml (naked DNA) DNase I (Boehringer Mannheim) for 75 s at 25° C. Purified DNA fragments were analyzed by primer extension.

p21 promoter 5′ site = assay: Electrophoretic Mobility Shift Assay (EMSA) of p53 binding to DNA containing the 5′ site of the p21 promoter; set-up: species or system human; settings: compared with the acetylated form of wild-type p53
Description: Both probes were ^32P end-labeled using T4 polynucleotide kinase and further purified by 12%-15% polyacrylamide native gels.

p21 promoter [2] = assay: Chromatin immunoprecipitation (ChIP) in U2OS cells after DNA damage, p21 promoter; assay type: cell-based, human
Description: To address this issue, a chromatin immunoprecipitation (ChIPs) technique was used to examine the temporal order of interaction of a variety of transcription proteins to individual p53-responsive promoters that control cell cycle arrest and apoptosis before and after DNA damage by two different damaging agents. […] For example, before damage the p21 promoter is already poised for transcription by containing bound RNA polymerase II, TATA binding protein (TBP), TFIIB, and TFIIH.
U2OS cells were grown to 50-60% confluency and treated either with UV-C or doxorubicin, (constant presence in media) for various times before crosslinking. After aspirating the media and washing with phosphate-buffered saline (PBS), cells were crosslinked with a 1% formaldehyde solution in 1×PBS for 15 min at room temperature. Crosslinking was stopped by addition of glycine to 125 mM final concentration. Monolayers were washed twice with cold PBS and harvested in radioimmunoprecipitation assay (RIPA) buffer [150 mM NaCl, 1% v/v Nonidet P-40, 0.5% w/v deoxycholate, 0.1% w/v SDS, 50 mM Tris pH 8, 5 mM EDTA, protease inhibitor cocktail, phosphatase inhibitors (20 mM NaF/0.2 mM sodium orthovanadate), deacetylase inhibitors (5 μM trichostatin A/5 mM sodium butyrate) and 0.5 mM PMSF] to generate a suspension of 10 million cells/ml. Suspensions were sonicated to generate DNA fragments below 500 bp and clarified by centrifugation for 10 min at 12000 g. Protein solutions were quantified for protein and DNA content and adjusted to 1 mg/ml of protein.
For immunoprecipitation, 1 mg of protein extract was pre-cleared for 2 hrs with 40 μl of a 50% slurry of 50:50 proteinA:proteinG sepharose before addition of indicated antibodies. Antibody (Ab) sources: DO1 (anti-total p53, Oncogene), S15P (anti-Serine 15-phospho-p53, Cell Signaling), AcH4 (Upstate), anti-TAF250 (R. Tjian), anti-TFIIB, -TBP, -RNApol II, -TFIIH (Santa Cruz), anti-serine 2-phospho-RNApol II and anti-serine 5-phospho-RNApol II (Covance). […]
DNA was precipitated and used as template in semi-quantitative PCR reactions. […]

[3] = system: chromatin-assembled p21 promoter; assay: In vitro transcription of the chromatin-assembled p21-LUC template with HeLa cell nuclear extract; assay type: biochemical, human
Protocol: The p21-LUC chromatin template was subjected to in vitro transcription reactions using HeLa cell nuclear extracts as a source of basal initiation components in the presence or absence of p53 and/or p300, as described in the protocol depicted in FIG. 1B. Both factors were added after chromatin assembly was complete (“post assembly”) and incubated with the template prior to in vitro transcription. Addition of p53 alone produced very modest transcriptional activation. […] Neither p53 nor p300 appreciably influenced transcription of naked DNA templates. Identical results were obtained using extracts from another cell line, erythroid K562. Thus, transcriptional activation from the chromatin-assembled p21 promoter in vitro requires p53, acting at a distance of at least 1.38 kb, in combination with a histone acetyl transferase cofactor, p300.
Chromatin was reconstituted using Drosophila embryonic extracts as described (Bulger, M. and Kadonaga, J. 1994 Methods Mol Genet 5:242-262). After assembly, the chromatin template (500 ng of DNA in 50 μl) was incubated with p53 and/or p300 (typically between 0.2-10 pmol of p53 and 0.2-0.5 pmol of p300), for 30 min at 27° C. For transcription, 20 μl of HeLa cell nuclear extract (typically 8 mg/ml) was added and incubated on ice for 10 min, then reactions proceeded as described (Kadam, S. et al. 2000 Genes & Dev 14:2441-2451). The purified RNA was analyzed by primer extension analysis with primers specific to luciferase and -globin gene (used as an internal control) sequences.

[4] = system: nucleosomal histones of the chromatin-assembled p21 promoter; assay: Chromatin HAT assay (3H-acetyl CoA incorporation); assay type: biochemical
Protocol: The quality of p21 promoter chromatin assembled in this purified system was determined by micrococcal nuclease digestion, as for embryo extracts, with similar results. The templates were then incubated with p53 and/or p300 in the presence of ^3H-acetyl CoA and the extent of acetylation monitored by incorporation of radioactivity when analyzed by SDS-PAGE and fluorography. […] A control reaction with equivalent amounts of free histones and p300 was included. Acetylation of p53 and autoacetylation of p300 was also detected.
Chromatin assembly was performed with recombinant dACF complex and NAP-1 histone chaperone as described (Ito, T. et al. 1999 Genes & Dev 13:1529-1539 and references therein). Chromatin assembly was assessed by micrococcal nuclease digestion and transcriptional repression. After assembly, proteins were added to the chromatin mixtures in the presence of 5 μM ^3H-acetyl CoA (ICN). After incubation for 1 hr at 30° C. with p53 and/or p300, reactions were stopped by boiling in SDS-PAGE loading buffer and analyzed on a 15% SDS-PAGE gel. The gel was fixed and treated with fluorography enhancing solutions (NEN Life Science). The gel was then dried and exposed to autoradiography.

[5] = system: chromatin-assembled p21 promoter; assay: In vitro chromatin immunoprecipitation with anti-acetyl-H4 antibodies; assay type: biochemical, human; settings: p53 and p300
Protocol: To determine whether p53 influenced the localization of nucleosome acetylation on the p21 promoter by direct recruitment of p300, in vitro chromatin immunoprecipitation assays were performed. p21 promoters were assembled into chromatin using purified components and incubated with p53 and/or p300. Chromatin was digested with micrococcal nuclease and acetylated oligonucleosomes were immunoprecipitated using anti-acetyl-H4 antibodies. Specific p21 plasmid sequences in the immunoprecipitates were detected by PCR amplification or Southern blot. Identical results were obtained from both assays. […] The extent of increased acetylation in different regions of the p21-LUC plasmid varied from 3.4-fold near the 3′ p53 binding site to 1.4-fold in a distal region located 2 kb downstream of the proximal promoter. […] The following decreasing levels of acetylation were found: 3′ site>TATA box=5′ site>>+2 kb.
Chromatin immunoprecipitation analysis was performed using the anti-acetylated histone H4 antibody (Upstate Biotechnology) according to the manufacturer's recommendations and as previously described (Kundu, T. K. et al. 2000 Mol Cell 6:551-561) with some minor modifications, and as described in Example 2 (see below).

p53ΔC30: C-terminal deleted form of p53, lacking the last 30 amino acid residues
binding to the 3′ site (p21 promoter [1]): no binding
binding to the 5′ site (p21 promoter [1]): weaker binding
binding activity in EMSA (p21 promoter 5′ site): strongly active

COc1cccc2c1C(=O)c1c(O)c3c(c(O)c1C2=O)C[C@@](O)(C(=O)CO)C[C@@H]3O[C@H]1C[C@H](N)[C@H](O)[C@H](C)O1 [doxorubicin]
binding of phosphorylated p53 to the p21 promoter (p21 promoter [2]): significantly increased
recruitment of TAFII250 to the p21 promoter (p21 promoter [2]): no recruitment
recruitment of TFIIB to the p21 promoter (p21 promoter [2]): active recruitment

p53KR: mutant p53 in which lysines 370, 372, 373, 381, and 382 within the C-terminal domain were replaced by arginine
ability to activate transcription compared with wild-type p53 ([3]; with p300): coactivated by p300 to a similar extent as wild-type p53

p300: full-length human histidine-tagged p300, histone acetyl transferase cofactor, expressed in Sf9 cells
acetylation of nucleosomal histones ([4]; both p53 and p300 present): strong acetylation
acetylation of nucleosomal histones ([4]; p300 alone): very weak acetylation
extent of increased acetylation ([5]; distal region 2 kb downstream of the proximal promoter): 1.4 fold
extent of increased acetylation ([5]; near the 3′ p53 binding site): 3.4 fold
transcriptional activation of the chromatin template ([3]; coincubation with p53): strong synergistic de-repression
transcriptional activation of the chromatin template ([3]; p300 alone): unable to achieve such activation
